This is an account of results in patent US20070092577A1, “Dietary calcium for reducing the production of reactive oxygen species” (University of Tennessee Research Foundation, priority 2005, published 2007).

The subject of one experiment is NADPH oxidase. The experiment can be described thus: NADPH oxidase expression in 3T3-L1 adipocytes. The format is cell-based, murine. As to conditions: added to glucose 30 mmol/L, 48 hours; nifedipine 10 μmol/L. As to the method: 3T3-L1 preadipocytes were incubated at a density of 8000 cells/cm^2 (10 cm^2 dish) and grown in Dulbecco's modified Eagle's medium (DMEM) containing 10% FBS and antibiotics (adipocyte medium) at 37° C. in 5% CO2 in air. Confluent preadipocytes were induced to differentiate with a standard differentiation medium consisting of DMEM-F 10 (1:1, vol/vol) medium supplemented with 1% FBS, 1 μM dexamethasone, IBMX (0.5 mM) and antibiotics (1% Penicillin-Streptomycin). Preadipocytes were maintained in this differentiation medium for 3 days and subsequently cultured in adipocyte medium. Cultures were re-fed every 2-3 days to allow 90% of cells to reach full differentiation before conducting chemical treatment. Chemicals were freshly diluted in adipocyte medium before treatment. […] Cell viability was measured via trypan blue exclusion. Adipocyte 18s, cyclin A, NADPH oxidase, and UCP2 were quantitatively measured using a Smart Cycler Real Time PCR System (Cepheid, Sunnyvale, Calif.) with a TaqMan 1000 Core Reagent Kit (Applied Biosystems, Branchburg, N.J.). […] Reactions of quantitative RT-PCR for standards and unknown samples were also performed according to the instructions of Smart Cycler System (Cepheid, Sunnyvale, Calif.) and TaqMan Real Time PCR Core Kit (Applied Biosystems, Branchburg, N.J.). The mRNA quantitation for each sample was further normalized using the corresponding 18s quantitation.

The next experiment relates to IL-6. The experiment can be described thus: IL-6 expression in differentiated Zen-bio human adipocytes. As to conditions: 10 nmol/L, 48 h; p=0.004. The class given is cell-based. As to the method: Human pre-adipocytes used in this study were supplied by Zen-Bio (Research Triangle, N.C.). […] The cells are isolated from the stromal vascular fraction of human subcutaneous adipose tissue and differentiated in vitro as follows: […] Preadipocytes were maintained in this differentiation medium for 3 days and subsequently cultured in adipocyte medium in which BRL49653 and MIX were omitted. Cultures were re-fed every 2-3 days till fully differentiated. Cells were incubated in serum free medium overnight before chemical treatment. Chemicals were freshly diluted in adipocyte medium before treatment. […] Cell viability was measured via trypan blue exclusion. Adipocyte and muscle 18s, TNFα, IL-6, IL-8, IL-15 and adiponectin were quantitatively measured using a smart cycler real-time PCR system (Cepheid, Sunnyvale, Calif.) with a TaqMan 1000 Core Reagent Kit (Applied Biosystems, Branchburg, N.J.). […] Reactions of quantitative RT-PCR for standards and unknown samples were also performed according to the instructions of Smart Cycler System (Cepheid, Sunnyvale, Calif.) and TaqMan Real Time PCR Core Kit (Applied Biosystems, Branchburg, N.J.). The mRNA quantitation for each sample was further normalized using the corresponding 18s quantitation.

For a further experiment, the system named is MIF. The experiment can be described thus: MIF expression in human adipocytes. The format is cell-based. Conditions: calcitriol 10 nmol/L, 48 hours; p=0.001. An excerpt:
Cell culture: Human preadipocytes used in this study were supplied by Zen-Bio (Research Triangle, N.C.). Preadipocytes were inoculated in DMEM/Ham's F-10 medium (DMEM-F10) (1:1, vol/vol) containing 10% FBS, 15 mmol/L HEPES, and antibiotics at a density of 30,000 cells/cm^2. Confluent monolayers of preadipocytes were induced to differentiate with a standard differentiation medium consisting of DMEM-F 10 (1:1, vol/vol) medium supplemented with 15 mmol/L HEPES, 3% FBS, 33 μmol/L biotin, 17 μmol/L pantothenate, 100 nmol/L insulin, […] methylisobutylxanthine, 1 μmol/L dexamethasone, 1 μmol/L BRL49653, and antibiotics. […]
Cells were washed with fresh adipocyte medium, re-fed with medium containing the indicated treatments, and incubated at 37° C. in 5% CO2 for 48 hours before analysis. Cell viability was measured via trypan blue exclusion.
Adipocyte and muscle 18s, CD14, TNFα, MIP, M-CSF, IL-6 and MCP-1 were quantitatively measured using a Smart Cycler Real Time PCR System (Cepheid, Sunnyvale, Calif.) with a TaqMan 1000 Core Reagent Kit (Applied Biosystems, Branchburg, N.J.). […] Reactions of quantitative RT-PCR for standards and unknown samples were also performed according to the instructions of Smart Cycler System (Cepheid, Sunnyvale, Calif.) and TaqMan Real Time PCR Core Kit (Applied Biosystems, Branchburg, N.J.). […]

A further experiment concerns TNFα. Kind of experiment: TNFα expression in RAW 264 macrophages. The format is cell-based. The protocol:
RAW 264 macrophages and 3T3-L1 preadipocytes (American Type Culture Collection) were incubated at a density of 8000 cells/cm2 (10 cm2 dish) and grown in Dulbecco's modified Eagle's medium (DMEM) containing 10% FBS and antibiotics (adipocyte medium) at 37° C. in 5% CO2 in air. Confluent 3T3-L1 preadipocytes were induced to differentiate with a standard differentiation medium consisting of DMEM-F10 (1:1, vol/vol) medium supplemented with 1% FBS, 1 μM dexamethasone, IBMX (0.5 mM) and antibiotics (1% Penicillin-Streptomycin). Preadipocytes were maintained in this differentiation medium for 3 days and subsequently cultured in adipocyte medium. Cultures were re-fed every 2-3 days to allow 90% cells to reach fully differentiation for 3T3-L1 adipocytes or grow to a confluence for RAW 264 before conducting chemical treatment.
Human adipocytes (Zen-Bio, Inc.), 3T3-L1 adipocytes, RAW264 macrophages were obtained and co-cultured by using transwell inserts with 0.4 μm porous membranes (Corning) to separate adipocytes and macrophages. All data are expressed as mean±SEM. Data were evaluated for statistical significance by analysis of one-way or two-way variance (ANOVA; means with different letter differ, p<0.05).
Adipocyte and muscle 18s, CD14, TNFα, MIP, M-CSF, IL-6 and MCP-1 were quantitatively measured using a Smart Cycler Real Time PCR System (Cepheid, Sunnyvale, Calif.) with a TaqMan 1000 Core Reagent Kit (Applied Biosystems, Branchburg, N.J.). The primers and probe sets were obtained from Applied Biosystems TaqMan® Assays-on-Demand™ Gene Expression primers and probe set collection according to manufacture's instruction. […] Reactions of quantitative RT-PCR for standards and unknown samples were also performed according to the instructions of Smart Cycler System (Cepheid, Sunnyvale, Calif.) and TaqMan Real Time PCR Core Kit (Applied Biosystems, Branchburg, N.J.). The mRNA quantitation for each sample was further normalized using the corresponding 18s quantitation.

Turning to `C=C1/C(=C\C=C2/CCC[C@]3(C)[C@@H]([C@H](C)CCCC(C)(C)O)CC[C@@H]23)C[C@@H](O)C[C@@H]1O` [calcitriol, 1, 25-Dihydroxyvitamin D], the “effect on NADPH oxidase expression” value in the experiment with NADPH oxidase is given as “stimulated”. In addition, the “stimulation of IL-6 expression” value in the experiment on IL-6 amounted to 53%. Moreover, the “increase of MIF expression” value in the experiment on MIF is 59%. Further, the “effect on TNFα expression in macrophages in co-culture” value in the experiment on TNFα (co-culture with differentiated 3T3-L1 adipocytes) was “further enhanced”. For the same compound, the “stimulation of TNFα expression” value in the experiment on TNFα (macrophages cultured alone, calcitriol 10 nmol/L, 48 hours) is on record as 91%.
